In patent US20250304717A1, “CAMPTOTHECIN DERIVATIVE AND LIGAND-DRUG CONJUGATE” (HAINAN SIMCERE ZAIMING PHARMACEUTICAL CO., LTD., priority 2022, published 2025):
Where two headings read alike, the source gives them in different places.

B1: ADC-L1-19-8 (antibody, human IgG1, kappa, V domains shown)
VH: QVQLQESGPGLVKPSQTLSLTCTVSGYAFTAYNIHWVRQAPGQGLEWMGSFDPYDGGSSYNQKFKDRLTISKDTSKNQVVLTMTNMDPVDTATYYCARGWYYFDYWGHGTLVTVSS
VL: DIVMTQTPLSLPVTPGEPASISCRASKSISKYLAWYQQKPGQAPRLLIYSGSTLQSGIPPRFSGSGYGTDFTLTINNIESEDAAYYFCQQHDESPYTFGEGTKVEIKR
modifications: drug-linker L1-19 on cysteine thiols after TCEP reduction; positions not given; DAR 7.1 for the whole conjugate
notes: Antibody-drug conjugate
B2: ADC-L1-19-P1-8 (antibody, human IgG1, kappa, V domains shown)
VH: QVQLQESGPGLVKPSQTLSLTCTVSGYAFTAYNIHWVRQAPGQGLEWMGSFDPYDGGSSYNQKFKDRLTISKDTSKNQVVLTMTNMDPVDTATYYCARGWYYFDYWGHGTLVTVSS
VL: DIVMTQTPLSLPVTPGEPASISCRASKSISKYLAWYQQKPGQAPRLLIYSGSTLQSGIPPRFSGSGYGTDFTLTINNIESEDAAYYFCQQHDESPYTFGEGTKVEIKR
modifications: drug-linker L1-19-P1 on cysteine thiols after TCEP reduction; positions not given; DAR 7.7 for the whole conjugate
notes: Antibody-drug conjugate

Legend:
SKBR3 cells = assay: Anti-tumor cell proliferation activity of compound of formula (D-H), Cell-Titer Glo, SKBR3; assay type: cell-based, human
Procedure: (§1) Cell culture: HCT116 cells and SKBR3 cells were cultured with a McCoy's 5a medium containing 10% fetal bovine serum+1% penicillin-streptomycin at 37° C. with 5% CO2, and OVCAR3 cells were cultured with a 1640 medium containing 20% fetal bovine serum+2 μg/mL bovine insulin+1% penicillin-streptomycin at 37° C. with 5% CO2. Cells at logarithmic growth phase were available for the experiment.
(§2) Cell proliferation activity test: The Cell-Titer Glo reagent was used to test the compound for inhibitory activity on proliferation of the three cell strains HCT116, SKBR3, and OVCAR3. HCT116 cells (1500 per well), SKBR3 cells (3000 per well), and OVCAR3 cells (5000 per well) were seeded on 96-well plates and incubated at 37° C. with 5% CO2 for 24 h. After a solution of the compound to be detected was added (the compound was dissolved in DMSO so that the compound concentration was 1 mM, then the compound was diluted to […] in DMSO at 9 concentrations in a 3-fold dilution, and 10 μL of the prepared compound solution was transferred to the 96-well plate so that the final concentration was 0-300 nM), the mixture was incubated at 37° C. with 5% CO2. HCT116 cells were cultured for 3 days, and SKBR3 cells and OVCAR3 cells were cultured for 5 days. The Cell-Titer Glo reagent was added and the cell activity was measured.
(§3) A negative control group and a positive control group were respectively used as Bottom and Top. The negative control group was not added with cells, only added with the culture medium in the same volume, and other operations were consistent with those of the experimental group. The positive control group was not added with the test drug, and other operations were consistent with those of the experimental group.
(§4) Data analysis: % Inhibition was calculated, and compound IC50 was fitted.
(§5) % Inhibition=1-100%×(Signal−Bottom)/(Top−Bottom).
(§6) Signal referred to the signal value of the experimental group, Bottom referred to the average signal value of the negative control group, and Top referred to the average signal value of the positive control group.

OVCAR3 cells = assay: Anti-tumor cell proliferation activity of compound of formula (D-H), Cell-Titer Glo, OVCAR3; assay type: cell-based; settings: Homo sapiens, OVCAR-3, 120 h
Procedure: as §1, §2, §3, §4, §5, §6

HCT116 cells = assay: Anti-tumor cell proliferation activity of compound of formula (D-H), Cell-Titer Glo, HCT116; assay type: cell-based; settings: Homo sapiens, HCT-116, 72 h
Procedure: as §1, §2, §3, §4, §5, §6

[1] = biological target: human ROR1 on stably transfected cell strain MCF7-hROR1 clone 2G2 (human, UniProt Q01973 30-406); assay: flow cytometry (FACS) on MCF7-hROR1 clone 2G2 cells, 5-fold dilutions from 100 nM, Alexa Fluor 647 anti-human IgG secondary antibody, four-parameter fit
Procedure: Stably transfected cell strain MCF7-hROR1 clone 2G2 constructed in the steps described above was expanded to a logarithmic growth phase in a T-75 cell culture flask, and the medium supernatant was discarded after centrifugation. The cell pellet was washed twice with PBS. […] After the mixture was washed twice with PBS, a secondary antibody was added: Alexa Fluor® 647 AffiniPure Goat Anti-Human IgG (H+L) (purchased from Jackson Immuno, Cat. No: 109-605-088), and the mixture was incubated at 4° C. for 1 h. After the mixture was washed twice with PBS, the cells were resuspended, and detected and analyzed by FACS (FACS Canto™, purchased from BD Biosciences). Data were analyzed by four-parameter curve fitting using Graphpad Prism software to give EC₅₀ values.

[2] = Homo sapiens, SK-BR-3, 120 h, read-out: SKBR3 Antiproliferative activity IC50 (nM), SKBR3 cells, 5 days
[3] = read-out: OVCAR3 Antiproliferative activity IC50 (nM)
[4] = read-out: HCT116 Antiproliferative activity IC50 (nM), HCT116 cells, 3 days

Molecule | IC50 (SKBR3 cells; [2]) | IC50 (OVCAR3 cells; [3]) | IC50 (HCT116 cells; [4]) | other results
CC[C@@]1(O)C(=O)OCc2c1cc1n(c2=O)Cc2c-1nc1cc(Cl)c(C)cc1c2CNC(=O)CO [Compound 6, (S)-N-((8-chloro-4-ethyl-4-hydroxy-9-methyl-3,14-dioxo-3,4,12,14-tetrahydro-1H-pyrano[3′,4′:6,7]indolizino[1,2-b]quinolin-11-yl)methyl)-2-hydroxyacetamide] | 4.8 nM | 2.1 nM | – | –
CC[C@@]1(O)C(=O)OCc2c1cc1n(c2=O)Cc2c-1nc1cc3c(cc1c2CNC(=O)C(O)C1CC1)OCO3 (stereo partly drawn) [Compound 14, 2-cyclopropyl-N—(((S)-7-ethyl-7-hydroxy-8,11-dioxo-7,8,11,13-tetrahydro-10H-[1,3]dioxolo[4,5-g]pyrano[3′,4′:6,7]indolizino[1,2-b]quinolin-14-yl)methyl)-2-hydroxyacetamide] | 2.2 nM | 0.9 nM | < 10 nM | –
CC[C@@]1(O)C(=O)OCc2c1cc1n(c2=O)Cc2c-1nc1cc3c(cc1c2CNC(=O)[C@@H](O)C1CC1)OCO3 [Compound 14-P1, (S)-2-cyclopropyl-N—(((S)-7-ethyl-7-hydroxy-8,11-dioxo-7,8,11,13-tetrahydro-10H-[1,3]dioxolo[4,5-g]pyrano[3′,4′:6,7]indolizino[1,2-b]quinolin-14-yl)methyl)-2-hydroxyacetamide] | – | 0.6 nM | < 10 nM | IC50 (SKBR3 cells; Homo sapiens, SK-BR-3, 120 h, SKBR3 cells, 5 days, read-out: SKBR3 Antiproliferative activity IC50): 2.1 nM
CC[C@@]1(O)C(=O)OCc2c1cc1n(c2=O)Cc2c-1nc1cc3c(cc1c2CNC(=O)C(O)C1CC1)OCO3 (stereo partly drawn) [Compound 14-P2, 2-cyclopropyl-N—(((S)-7-ethyl-7-hydroxy-8,11-dioxo-7,8,11,13-tetrahydro-10H-[1,3]dioxolo[4,5-g]pyrano[3′,4′:6,7]indolizino[1,2-b]quinolin-14-yl)methyl)-2-hydroxyacetamide] | – | – | – | IC50 (HCT116 cells; HCT116 cells, 3 days, read-out: HCT116 Antiproliferative activity IC50): 10 to 100 nM; IC50 (SKBR3 cells; read-out: SKBR3 Antiproliferative activity IC50, SKBR3 cells, 5 days): 3.5 nM; IC50 (OVCAR3 cells; OVCAR3 cells, 5 days, read-out: OVCAR3 Antiproliferative activity IC50): 1 nM
CC[C@@]1(O)C(=O)OCc2c1cc1n(c2=O)Cc2c-1nc1cc(F)c(Cl)c(F)c1c2CNC(=O)CO [Compound 21, (S)-N-((9-chloro-4-ethyl-8,10-difluoro-4-hydroxy-3,14-dioxo-3,4,12,14-tetrahydro-1H-pyrano[3′,4′:6,7]indolizino[1,2-b]quinolin-11-yl)methyl)-2-hydroxyacetamide] | 4 nM | 1.7 nM | < 10 nM | –
CC[C@@]1(O)C(=O)OCc2c1cc1n(c2=O)Cc2c-1nc1cc(F)c(Cl)c(F)c1c2CNC(=O)C(C)(C)O [Compound 22, (S)-N-((9-chloro-4-ethyl-8,10-difluoro-4-hydroxy-3,14-dioxo-3,4,12,14-tetrahydro-1H-pyrano[3′,4′:6,7]indolizino[1,2-b]quinolin-11-yl)methyl)-2-hydroxy-2-methylpropanamide] | 3.5 nM | 1.4 nM | < 10 nM | –
CC[C@@]1(O)C(=O)OCc2c1cc1n(c2=O)Cc2c-1nc1cc(F)c(Cl)c(F)c1c2CNC(=O)C(O)C1CC1 (stereo partly drawn) [Compound 23, N—(((S)-9-chloro-4-ethyl-8,10-difluoro-4-hydroxy-3,14-dioxo-3,4,12,14-tetrahydro-1H-pyrano[3′,4′:6,7]indolizino[1,2-b]quinolin-11-yl)methyl)-2-cyclopropyl-2-hydroxyacetamide] | 5.3 nM | 3.9 nM | < 10 nM | –
CC[C@@]1(O)C(=O)OCc2c1cc1n(c2=O)Cc2c-1nc1cc(F)c(Cl)c(F)c1c2CNC(=O)[C@@H](C)O [Compound 25, (R)—N—(((S)-9-chloro-4-ethyl-8,10-difluoro-4-hydroxy-3,14-dioxo-3,4,12,14-tetrahydro-1H-pyrano[3′,4′:6,7]indolizino[1,2-b]quinolin-11-yl)methyl)-2-hydroxypropanamide] | 3.7 nM | 2 nM | < 10 nM | –
CC[C@@]1(O)C(=O)OCc2c1cc1n(c2=O)Cc2c-1nc1cc(F)c(Cl)c(F)c1c2CNC(=O)[C@H](C)O [Compound 26, (S)-N-(((S)-9-chloro-4-ethyl-8,10-difluoro-4-hydroxy-3,14-dioxo-3,4,12,14-tetrahydro-1H-pyrano[3′,4′:6,7]indolizino[1,2-b]quinolin-11-yl)methyl)-2-hydroxypropanamide] | 4.2 nM | 1.6 nM | < 10 nM | –
CC[C@@]1(O)C(=O)OCc2c1cc1n(c2=O)Cc2c-1nc1cc3c(c(Cl)c1c2CNC(=O)C(O)C1CC1)OCO3 (stereo partly drawn) [Compound 30, N—(((S)-15-chloro-7-ethyl-7-hydroxy-8,11-dioxo-7,8,11,13-tetrahydro-10H-[1,3]dioxolo[4,5-g]pyrano[3′,4′:6,7]indolizino[1,2-b]quinolin-14-yl)methyl)-2-cyclopropyl-2-hydroxyacetamide] | – | 0.4 nM | < 10 nM | –
CC[C@@]1(O)C(=O)OCc2c1cc1n(c2=O)Cc2c-1nc1cc3c(c(Cl)c1c2CNC(=O)CO)OCO3 [Compound 31, (S)-N-((15-chloro-7-ethyl-7-hydroxy-8,11-dioxo-7,8,11,13-tetrahydro-10H-[1,3]dioxolo[4,5-g]pyrano[3′,4′:6,7]indolizino[1,2-b]quinolin-14-yl)methyl)-2-hydroxyacetamide] | – | 0.2 nM | < 10 nM | –
CC[C@@]1(O)C(=O)OCc2c1cc1n(c2=O)Cc2c-1nc1cc(Cl)c3c(c1c2CNC(=O)CO)CCC3 [Compound 33, (S)-N-((4-chloro-8-ethyl-8-hydroxy-9,12-dioxo-2,3,8,9,12,14-hexahydro-1H,11H-cyclopenta[f]pyrano[3′,4′:6,7]indolizino[1,2-b]quinolin-15-yl)methyl)-2-hydroxyacetamide] | – | 0.8 nM | < 10 nM | –
CC[C@@]1(O)C(=O)OCc2c1cc1n(c2=O)Cc2c-1nc1cc(Cl)c3c(c1c2CNC(=O)C(O)C1CC1)CCC3 (stereo partly drawn) [Compound 34, N—(((S)-4-chloro-8-ethyl-8-hydroxy-9,12-dioxo-2,3,8,9,12,14-hexahydro-1H,11H-cyclopenta[f]pyrano[3′,4′:6,7]indolizino[1,2-b]quinolin-15-yl)methyl)-2-cyclopropyl-2-hydroxyacetamide] | – | 0.6 nM | < 10 nM | –
CC[C@@]1(O)C(=O)OCc2c1cc1n(c2=O)Cc2c-1nc1cc3c(c(F)c1c2CNC(=O)C(O)C1CC1)OCO3 (stereo partly drawn) [Compound 35, 2-cyclopropyl-N-(((S)-7-ethyl-15-fluoro-7-hydroxy-8,11-dioxo-7,8,11,13-tetrahydro-10H-[1,3]dioxolo[4,5-g]pyrano[3′,4′:6,7]indolizino[1,2-b]quinolin-14-yl)methyl)-2-hydroxyacetamide] | 3.5 nM | 1.2 nM | < 10 nM | –
B1 | – | – | – | EC50 [1]: 0.68 nM
B2 | – | – | – | EC50 [1]: 0.34 nM
